From ChEMBL document CHEMBL4419164, “Methods and compositions for inhibiting cnksr1” (2018)
The source made the active and inactive calls. The rule behind the calls is not given here.

What was measured:
NCI-H2122 = experiment: Growth inhibition of human NCI-H2122 cells relative to control; type: functional, cell-based
[1] = target: T1, Connector enhancer of kinase suppressor of ras 1 (Homo sapiens) (UniProt Q969H4); experiment: Inhibition of GFP-tagged CNKSR1 (unknown origin) expressed in HEK293T cells assessed as inhibition of direct binding of CNKSR1 to mut-KRAS at 50 uM incubated for 4 hrs by fluorescence lifetime imaging microscopy; type: cell-based
T1 sequence (whole entry): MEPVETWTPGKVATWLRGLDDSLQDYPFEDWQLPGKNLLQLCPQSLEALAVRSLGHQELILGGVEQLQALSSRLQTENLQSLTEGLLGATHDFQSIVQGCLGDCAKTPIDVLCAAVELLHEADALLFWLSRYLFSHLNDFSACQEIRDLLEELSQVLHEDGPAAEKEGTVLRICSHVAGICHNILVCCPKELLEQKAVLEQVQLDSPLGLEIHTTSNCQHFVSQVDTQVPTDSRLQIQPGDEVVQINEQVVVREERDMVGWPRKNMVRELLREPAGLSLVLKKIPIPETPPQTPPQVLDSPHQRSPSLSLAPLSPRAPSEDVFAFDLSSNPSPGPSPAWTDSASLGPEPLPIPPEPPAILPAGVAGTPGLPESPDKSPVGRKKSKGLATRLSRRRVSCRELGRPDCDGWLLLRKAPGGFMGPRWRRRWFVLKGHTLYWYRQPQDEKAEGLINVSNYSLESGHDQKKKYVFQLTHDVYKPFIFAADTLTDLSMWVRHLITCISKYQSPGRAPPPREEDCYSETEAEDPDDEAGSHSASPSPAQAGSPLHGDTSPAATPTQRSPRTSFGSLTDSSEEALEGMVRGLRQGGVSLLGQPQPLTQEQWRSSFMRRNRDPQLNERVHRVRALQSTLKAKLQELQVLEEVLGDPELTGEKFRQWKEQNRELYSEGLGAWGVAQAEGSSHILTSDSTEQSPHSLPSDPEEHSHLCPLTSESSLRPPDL

[2] = Half life in C57BL6 mouse at 250 mg/kg, po dosed via gavage as single administration; type: ADME, organism-based; conditions: in vivo
HCC515 = experiment: Growth inhibition of human HCC515 cells relative to control; type: functional, cell-based
[3] = target: T2, carboxylesterase 2 (cocaine esterase) (Homo sapiens, UniProt O00748); experiment: Stability assessed as recombinant human carboxyesterase-2 mediated compound hydrolysis by measuring half life at 50 ug/ml at 37 degC at pH 7.4; type: ADME; conditions: recombinant human carboxylesterase-2, pH 7.4
T2 sequence (O00748 whole entry): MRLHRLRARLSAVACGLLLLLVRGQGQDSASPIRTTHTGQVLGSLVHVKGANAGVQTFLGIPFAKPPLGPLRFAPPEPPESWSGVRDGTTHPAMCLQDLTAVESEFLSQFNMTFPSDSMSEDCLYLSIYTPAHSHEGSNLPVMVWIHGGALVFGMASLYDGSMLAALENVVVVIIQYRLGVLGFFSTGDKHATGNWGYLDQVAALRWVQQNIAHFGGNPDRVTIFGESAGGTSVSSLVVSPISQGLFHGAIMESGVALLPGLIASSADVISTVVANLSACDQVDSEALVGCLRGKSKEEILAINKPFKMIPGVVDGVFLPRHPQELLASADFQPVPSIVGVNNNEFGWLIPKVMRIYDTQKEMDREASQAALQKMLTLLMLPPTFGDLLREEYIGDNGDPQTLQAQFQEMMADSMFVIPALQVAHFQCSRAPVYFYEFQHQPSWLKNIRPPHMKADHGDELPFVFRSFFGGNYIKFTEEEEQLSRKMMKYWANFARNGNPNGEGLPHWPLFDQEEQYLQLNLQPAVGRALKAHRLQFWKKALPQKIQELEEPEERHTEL

[4] = Half life in beagle dog plasma at 50 ug/ml at 37 degC at pH 7.4; type: ADME, cell-free, Canis lupus familiaris
[5] = Half life in mouse plasma at 50 ug/ml at 37 degC at pH 7.4; type: ADME, cell-free
[6] = target: T1, Connector enhancer of kinase suppressor of ras 1 (Homo sapiens); experiment: Inhibition of GFP-tagged CNKSR1 (unknown origin) expressed in HEK293T cells assessed as reduction in total mutant-KRas protein at 50 uM incubated for 4 hrs by confocal imaging assay; type: cell-based
[7] = Toxicity in SCID mouse xenografted with human NCI-H2122 cells assessed as induction of observable toxic effects at 200 mg/kg/day dosed via gavage daily for 20 days; type: organism-based; conditions: in vivo, po, 480 h
[8] = target: T3, 3-phosphoinositide-dependent protein kinase 1 (Homo sapiens) (UniProt O15530); experiment: Binding affinity to PDPK1 PH-domain (unknown origin) at 0.01 to 50 uM by SPR spectroscopy
T3 sequence (whole entry): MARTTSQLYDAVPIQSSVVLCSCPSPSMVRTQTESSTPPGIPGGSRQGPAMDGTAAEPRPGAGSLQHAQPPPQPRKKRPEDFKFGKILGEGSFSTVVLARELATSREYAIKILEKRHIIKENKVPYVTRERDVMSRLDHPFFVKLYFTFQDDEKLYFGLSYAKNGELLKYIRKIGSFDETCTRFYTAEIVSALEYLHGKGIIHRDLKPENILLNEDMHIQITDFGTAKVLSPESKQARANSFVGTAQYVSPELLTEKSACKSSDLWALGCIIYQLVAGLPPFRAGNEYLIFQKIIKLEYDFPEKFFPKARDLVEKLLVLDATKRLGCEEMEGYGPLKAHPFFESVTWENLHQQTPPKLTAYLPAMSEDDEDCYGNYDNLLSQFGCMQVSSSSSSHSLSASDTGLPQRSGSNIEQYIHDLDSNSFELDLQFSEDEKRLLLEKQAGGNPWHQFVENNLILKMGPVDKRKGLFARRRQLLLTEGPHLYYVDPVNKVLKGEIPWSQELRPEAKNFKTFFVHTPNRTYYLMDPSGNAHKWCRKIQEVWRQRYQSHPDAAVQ

[9] = Terminal half life in iv dosed mouse; type: ADME, organism-based; conditions: in vivo, read-out: beta t1/2
[10] = target: Rho guanine nucleotide exchange factor TIAM1 (Homo sapiens) (UniProt Q13009); experiment: Binding affinity to TIAM1 PH-domain (unknown origin) at 0.01 to 50 uM by SPR spectroscopy
Chain of Rho guanine nucleotide exchange factor TIAM1 (Homo sapiens) (Q13009 whole entry): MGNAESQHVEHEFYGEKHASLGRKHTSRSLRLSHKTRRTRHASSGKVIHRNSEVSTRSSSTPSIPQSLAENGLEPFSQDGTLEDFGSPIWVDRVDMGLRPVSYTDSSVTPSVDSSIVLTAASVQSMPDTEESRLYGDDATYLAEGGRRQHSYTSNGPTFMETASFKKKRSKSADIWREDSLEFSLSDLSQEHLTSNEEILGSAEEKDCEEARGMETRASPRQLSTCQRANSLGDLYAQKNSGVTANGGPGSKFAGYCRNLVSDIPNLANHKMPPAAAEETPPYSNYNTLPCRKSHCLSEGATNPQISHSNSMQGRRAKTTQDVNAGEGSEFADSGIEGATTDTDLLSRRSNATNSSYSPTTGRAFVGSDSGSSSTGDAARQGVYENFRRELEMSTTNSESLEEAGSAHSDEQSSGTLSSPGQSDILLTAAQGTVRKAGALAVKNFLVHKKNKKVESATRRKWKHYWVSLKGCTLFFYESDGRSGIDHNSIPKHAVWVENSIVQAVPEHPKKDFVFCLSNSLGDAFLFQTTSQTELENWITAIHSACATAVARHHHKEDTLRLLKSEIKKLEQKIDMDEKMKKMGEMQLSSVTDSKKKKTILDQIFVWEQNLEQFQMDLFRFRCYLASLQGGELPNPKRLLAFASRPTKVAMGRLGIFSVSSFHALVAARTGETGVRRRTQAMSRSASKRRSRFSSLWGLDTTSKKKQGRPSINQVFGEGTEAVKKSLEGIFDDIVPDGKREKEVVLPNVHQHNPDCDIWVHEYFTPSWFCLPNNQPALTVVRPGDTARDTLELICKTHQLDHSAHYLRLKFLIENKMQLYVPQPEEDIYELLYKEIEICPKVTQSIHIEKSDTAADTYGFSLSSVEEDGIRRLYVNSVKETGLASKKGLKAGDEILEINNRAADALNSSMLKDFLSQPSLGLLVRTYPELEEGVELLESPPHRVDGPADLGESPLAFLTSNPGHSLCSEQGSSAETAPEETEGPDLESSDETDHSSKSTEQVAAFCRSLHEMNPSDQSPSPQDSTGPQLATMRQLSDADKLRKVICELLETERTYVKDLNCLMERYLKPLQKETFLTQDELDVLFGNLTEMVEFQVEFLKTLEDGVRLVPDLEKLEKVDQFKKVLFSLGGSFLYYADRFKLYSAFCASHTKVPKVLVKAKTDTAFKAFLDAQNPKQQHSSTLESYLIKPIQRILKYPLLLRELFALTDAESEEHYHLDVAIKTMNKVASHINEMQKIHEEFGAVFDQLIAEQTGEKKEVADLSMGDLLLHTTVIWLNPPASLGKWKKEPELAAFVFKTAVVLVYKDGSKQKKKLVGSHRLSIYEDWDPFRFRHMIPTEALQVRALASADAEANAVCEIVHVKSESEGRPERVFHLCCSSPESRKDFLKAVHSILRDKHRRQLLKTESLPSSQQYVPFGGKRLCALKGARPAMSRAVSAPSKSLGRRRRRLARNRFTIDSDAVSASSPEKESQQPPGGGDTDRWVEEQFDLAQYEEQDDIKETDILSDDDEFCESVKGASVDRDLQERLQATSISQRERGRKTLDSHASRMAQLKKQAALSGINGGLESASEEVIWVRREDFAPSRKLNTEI

- inhibition [1]: Active
- half-life [2]: 6 h
- half-life at 50 ug/ml [3]: 1.65 h
- half-life at 50 ug/ml [4]: 9.3 h
- half-life at 50 ug/ml [5]: 6.3 min
- inhibition [6]: Active
- Activity [8]: inactive
- half-life [9]: 3 min
- Activity [10]: inactive
SMILES: CCOC(=O)Cc1nn(Cc2nc(-c3ccc(C)cc3)cs2)c(=O)c2ccccc12
- growth inhibition (GI) (NCI-H2122): Active
- growth inhibition (GI) (HCC515): Active
- Activity [7]: Non-Toxic
